± gives the expanded uncertainty stated by the source.
How the values were obtained:
[1] = Molar enthalpy of transition or fusion; details: Crystal; DSC
[2] = Crystal; visual observation

| Molar enthalpy of transition or fusion [1] [kJ/mol] | Normal melting temperature [2] [°C] | SMILES |
| --- | --- | --- |
| 22.2 ± 0.66 | 110.50 ± 1.1 | Oc1cccc(O)c1 [1,3-benzenediol] |
| 24.1 ± 0.71 | 130.00 ± 1.1 | Ic1ccc(I)cc1 [1,4-diiodobenzene] |

— the NIST ThermoML archive (doi:10.1016/j.tca.2009.10.010)
